Data: paper PMC5856786, “A DHODH inhibitor increases p53 synthesis and enhances tumor cell killing by p53 degradation blockage” (Nature Communications, 2018)
Where two headings read alike, the source gives them in different places.

Legend:
[1] = test system: H1299 p53-null xenograft tumors; assay: H1299 p53-null xenograft; type: in vivo, mice
Excerpt: Error bars illustrate ± SEM with significance determined by Multiple Student’s t-tests. […] See supplementary information for detailed description of protocol. d) Pharmacokinetic study examining the effect of co-administration of nutlin-3a and (R)-HZ05 on the plasma concentration of nutlin-3a over time. See supplementary information for detailed description of protocol. e) In vivo activity of (R)- HZ05 alone and in combination with nutlin-3 on H1299 p53-null xenograft tumors (n ≥ 6). […] In the tumor volume graph, (**) on day 4 indicates a statistical difference of Control to HZ05 and to nutlin-3a; (*) on day 7 indicates a difference between Control and nutlin-3a; and (**) on day 12 indicates a statistical difference between Control, […] 19

[2] = In vivo pharmacokinetic parameters of (R)-HZ05; set-up: species or system C57B1/6N mice; settings: for AUC(0-inf) / Cmax / Tmax / AUC / half-life / BA (%): mice; for AUC: read-out: AUC 0-h; for half-life: read-out: t (h) (half-life) (converted)
Protocol: Waters Acquity UPLC (Waters Corp.) was used for all LC/MS and LC/MS/MS experiments. For chromatographic separation a general gradient was used (5 % mobile phase B to 90 % over 2 min total run) on a C18 BEH 1.7 µm column 2 × 50 mm (Waters Corp.). Mobile phase A consisted of 5 % acetonitrile 0.1 % formic acid and mobile phase B 100 % acetonitrile 0.1 % formic acid. The flow rate was 0.5 mL min-1 and 3 µL of the sample was injected. A standard curve between 3−1000 nM was prepared for each compound. […]
In vivo Pharmacokinetic Parameter Determination
(R)-HZ05 was formulated for subcutaneous and oral administration at 5 mg mL-1 in 20 % hydroxypropyl-β-cyclodextrin in PBS and formulated at 5 mg mL-1 diluted in physiological NaCl. […]
Blood was collected […]
in EDTA tubes from three mice per time point and stored on ice with plasma separated within 30 min by centrifugation at 2000 g and stored at –80 ° C until analysis at 0.08, 0.25, 0.5, 1, 2, 3, 4, 6 and 24 h post administration. […] internal standard (9 nM warfarin) was added to each plasma sample and each sample was shaken at RT for 10 min followed by centrifugation at 2000 g for 30 min at 4 °C. […] of sample was injected into an Acquity UPLC coupled to a triple quadrupole mass spectrometer (Waters) operated in MRM mode with positive electrospray ionization. MRM transition 381.09 > […]
CV and 40 V for CE) as a qualifier ion. Transition for internal standard was 309.16 > 163.005 (22 V for CV and 14 V for CE). Ion source conditions were: capillary voltage, 2000 V; desolvation temperature, 500 °C; desol vation gas flow rate, 1000 L h-1. Separation was conducted using a BEH C18 column (2.1 × 50 mm, 1.7 µm, Waters) using a linear gradient: 0 – 0.5 min, 5 % B; […], 100 % B, 1.61–2.00 min, 5 % B. Mobile phase A was 5 % acetonitrile with 0.1 % formic acid and B […]
All animal experimentation was carried out by Sweden
Contract In vivo Design AB in compliance with 2010/63/EU directive and approved by Stockholms Norra Djurförsöksetiska Nämnd (laboratory animal eth ical committee Stockholm) with the approval number N61/15. Any single plasma concentration value deviated by >10 times from the other two values was excluded from the pharmacokinetic evaluation, but was included in the figure. […]

recombinant human DHODH = recombinant human DHODH (Homo sapiens, UniProt Q02127); assay: Kinetic DHODH enzyme assay (3,4-dimethoxy-5-methyl-p-benzoquinone, DCIP); type: biochemical; set-up: made in house; settings: Fig. 5a; average of three independent repeats ± SD
Protocol: In Fig. 5a enzyme assays were optimized and performed with 6 nM recombinant human DHODH prepared as described. The reaction mixture for these kinetic assays consisted of 1 mM DL-dihydroorotic acid, 100 µM 3,4-dimethoxy-5-methyl-p-benzoquinone (#D9150, Sigma-Aldrich), and 100 µM DCIP in enzyme buffer. A stock solution of 20 mM DCIP was prepared in enzyme buffer and filtered through filter paper (20–25 μm pore size) just before use. Loss in absorbance by DCIP was measured at 595 nm at RT in a stepped time course (8 × 2 min, 8 × 3 min, 6 × 5 min). […] Therefore, for each concentration of inhibitor tested, a value for DHODH’s Vmax was estimated by linear regression within this time frame.

[3] = female, C57B1/6N, mouse, plasma, iv, i.v, dose 5 mg kg-1
[4] = female, C57B1/6N, mouse, plasma, po, p.o, dose 50 mg kg-1
[5] = female, C57B1/6N, mouse, plasma, sc, s.c, dose 50 mg kg-1

Sequence of recombinant human DHODH (Q02127 29-395 limits assumed): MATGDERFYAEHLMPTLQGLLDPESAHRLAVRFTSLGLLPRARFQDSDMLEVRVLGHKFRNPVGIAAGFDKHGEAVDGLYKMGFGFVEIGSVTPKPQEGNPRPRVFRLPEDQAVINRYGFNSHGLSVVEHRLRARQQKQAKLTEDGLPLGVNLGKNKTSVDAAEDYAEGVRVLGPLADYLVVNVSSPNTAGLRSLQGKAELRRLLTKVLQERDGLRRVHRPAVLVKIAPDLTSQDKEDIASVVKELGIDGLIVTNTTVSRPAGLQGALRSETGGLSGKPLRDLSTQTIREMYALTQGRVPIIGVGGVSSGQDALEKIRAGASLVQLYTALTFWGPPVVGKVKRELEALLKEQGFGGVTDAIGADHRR

O=C(N[C@@H]1CCCc2c1cnn2-c1ccccc1F)c1onc2c1CCCC2 [(R)-HZ05]
synergy with nutlin-3a in p53-null xenograft [1]: no synergy | clearance ([2]; female, C57B1/6N, mouse, plasma, iv, 5 mg kg-1, mice, i.v): 90 mL/min/kg | Vd ([2]; female, C57B1/6N, mouse, plasma, iv, 5 mg kg-1, mice, i.v, read-out: Vd): 8.3 L/kg | Vd ([2]; female, C57B1/6N, mouse, plasma, iv, 5 mg kg-1, mice, i.v, read-out: Vss): 3.6 L/kg | AUC(0-inf) [2, 3]: 2.4 µM·h | Cmax [2, 3]: 6.1 µM | Tmax [2, 3]: 4.8 min | AUC [2, 3]: 2.4 µM·h | half-life [2, 3]: 1.1 h | AUC(0-inf) [2, 4]: 9.9 µM·h | Cmax [2, 4]: 7.5 µM | Tmax [2, 4]: 15 min | AUC [2, 4]: 9.9 µM·h | half-life [2, 4]: 2.9 h | AUC(0-inf) [2, 5]: 30 µM·h | Cmax [2, 5]: 14.9 µM | Tmax [2, 5]: 30 min | AUC [2, 5]: 30 µM·h | half-life [2, 5]: 2.5 h | BA (%) ([2]; p.o, dose 50 mg kg-1): 41% | BA (%) ([2]; s.c, dose 50 mg kg-1): > 100% | IC50 (recombinant human DHODH): 0.011 ± 0.00094 µM
